How the values were obtained:
[1] = target: T1, C-terminal domain (CTD) of human STING (Homo sapiens, UniProt Q86WV6); assay: STING binding FP assay II; parameters: recombinant human STING protein (155-379); details: 7 nM STING
Procedure: (§1) The interaction between molecules and the C-terminal domain (CTD) of human STING was evaluated using a competition binding assay. In this assay, recombinant human STING protein (155-379) and a STING binding fluorescent probe were employed. Upon binding of the probe to STING, the rotation of the fluorescent probe is slowed due to the larger molecular size of the protein-bound complex. As a result, emitted light retains its plane of polarization, leading to an increase in fluorescence polarization. Molecules competing for the probe binding site displace the probe, which leads to rapid randomization of the polarization plane of the emitted light and a subsequent decrease in measured fluorescence polarization signal. Change in polarization was measured, allowing a comparative evaluation of the binding affinities of different compounds to the target protein.
(§2) The assay was performed in 96-well plates (ThermoFisher, cat.# 237108) containing 100µl : 10 µL test compound in 10% DMSO and buffer A (150 mM NaCl, 50 mM HEPES pH 7.5, 1 mM DTT) + 90 µL prepared master mix solution of: 4 nM fluorescein-labelled STING ligand (Probe 1; synthesis described above) in buffer A + 0.055% Tween-20 (v/v) and 35 nM STING in buffer A. Post mixing, plates were agitated at 600rpm and incubated for 20 min at room temperature. Subsequent measurements of the fluorescence polarization signal were made on a BioTek Synergy-H1 plate reader, using a polarization filter; Exc: 485/20 nm, Em: […]) with a gain-setting of 75. IC50 values were determined using a standard non-linear regression four-parameter curve fit in Graphpad Prism.
The procedure for STING binding FP assay II is the same as described for STING binding FP assay I, except for a lower STING concentration. In STING binding FP assay II, a concentration of 7 nM STING in buffer A was used.

STING [2] = target: T2, STING (Homo sapiens, UniProt Q86WV6); assay: Western Blot analysis of STING phosphorylation in human fibroblast cells (STING agonism); type: cell-based; parameters: host or cells: HFF-1 human foreskin fibroblasts; details: 7.2µM-3.6nM; 24h
T2 sequence (Q86WV6 whole entry): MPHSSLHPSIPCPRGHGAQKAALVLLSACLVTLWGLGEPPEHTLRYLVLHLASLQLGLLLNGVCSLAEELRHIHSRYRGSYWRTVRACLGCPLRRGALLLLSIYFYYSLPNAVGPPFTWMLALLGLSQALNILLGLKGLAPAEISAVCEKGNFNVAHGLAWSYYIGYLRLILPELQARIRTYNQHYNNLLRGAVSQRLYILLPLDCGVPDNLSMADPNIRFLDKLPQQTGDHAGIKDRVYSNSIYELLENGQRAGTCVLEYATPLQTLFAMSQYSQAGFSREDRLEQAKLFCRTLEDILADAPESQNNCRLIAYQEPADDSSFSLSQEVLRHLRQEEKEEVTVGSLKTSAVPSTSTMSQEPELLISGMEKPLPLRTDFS
Procedure: Human fibroblast were treated with a titration of E22, E9, E14 and E16 (7.2µM-3.6nM) for 24h prior to cell lysis and subsequently total STING, pSTING and Vinculin were assessed by western blot using rabbit anti-STING (1:1000), anti-pSTING (1:1000), anti-Vinculin (1:1000) and 2nd anti-rabbit-HRP (1:10.000) or anti-mouse-HRP (1:7500). Proteins were visualized using ImageQuant800. Control cells included untreated cells and cells treated with 300nM diABZI C3.

[3] = target: T1, C-terminal domain (CTD) of human STING; assay: STING binding FP assay III; parameters: recombinant human STING protein (155-379); details: 10 nM STING (FP assay III according to the text); read-out: STING binding FP assay II, IC50
Procedure: as §1, §2
The procedure for STING binding FP assay III is the same as described for STING binding FP assay I, except for a lower STING concentration. In STING binding FP assay III, a concentration of 10 nM STING in buffer A was used.

STING [4] = target: T2, STING; assay: Western Blot analysis for STING degradation in H596 cells; type: cell-based; details: 24h; reference protein beta-actin
Procedure: (§3) For cell lysing for Western Blot analysis cell culture plates were brought to ice, supernatant was removed by aspiration and cells washed 2x in ice-cold DPBS. Cells were lysed in 65 µL of RIPA buffer supplemented with cOmplete ULTRA Tablets protease inhibitor cocktail, PIERCE Phosphatase inhibitor mini tablet, Benzonase and 10mM NaF for 20 min on ice. Lysates were collected, cleared by centrifugation (13000xg for 10 min at 4°C). Samples were either analysed directly or stored at -80°C until analysis.
(§4) For Western Blotting, total protein concentration in each lysate was determined using PIERCE Gold BCA Assay kit according to manufactures protocol. 6 µg of total protein was mixed with 2x Laemmli buffer containing DTT, boiled for 5 min at 95°C, cooled on ice and loaded into each well of a 4-20% Criterion TGX gel. Proteins were separated by electrophoresis, by running for 1h at 150V. After separation proteins were blotted onto a PVDF membrane by semi-dry transfer using Trans-Blot turbo system at pre-defined BioRad MIDI protocol; 25V, 1A (fixed) for 30 min. Membranes were blocked for 1h in 5% skim milk in TBS-T20 on a rocker at room temperature followed by washing and exposure to primary antibodies against human STING 1:1000 (Cell Signalling, #13647) or loading controls Vinculin 1:1000 (Cell Signalling, #13901) or beta-Actin 1:10000 (Sigma, A5441) all diluted in 5% BSA in TBS-T20. Membranes were probed over night at 4°C on a rocker. Membranes were washed 3x in TBS-T20 followed by exposure to secondary HRP-conjugated anti-rabbit antibody or HRP-conjugated anti-mouse antibody diluted 1:10000 in 5% skim milk in TBS-T20 as appropriate. Membranes were incubated for 1h at room temperature on a rocker, then washed 3x in TBS-T20.
(§5) For generating DC50 values, the intensity of individual bands was measured using imaged and expression levels were calculated as a ratio of STING intensities vs. Reference protein intensities and normalized to DMSO control. The normalized ratios were plotted on a XY curve in GraphPad Prism where DC50 was estimated using a 4-parameter non-linear regression fitting curve.
To assess STING degradation in H596 cells (ATCC, HTB-178) cells were seeded at a density of 100.000 cells/well in 24-well Nunclon Delta surface treated culture plate in RPMI-1640 growth medium (supplemented with 10% FBS, 1% Pen-strep). Cells were incubated over-night at 37°C 5% CO2 to allow adhesion. Next day growth medium was renewed and a 5x concentration of test compounds (2.5% DMSO) diluted in growth medium were added to the appropriate well. Final DMSO concentration was 0.5%. Cell culture plates were returned to the incubator for additional 24h. Final test compound concentrations were 0.22 µM, 0.67 µM, 2 µM and 6 µM.
For cell lysis, western blotting and data analysis, the methods described above for HFF-1 cells were applied.

[5] = target: T1, C-terminal domain (CTD) of human STING; assay: STING binding FP assay I; parameters: recombinant human STING protein (155-379); details: 35 nM STING, 4 nM Probe 1
Procedure: as §1, §2

STING [6] = target: T2, STING; assay: Western Blot analysis for STING degradation (DC50) in HFF-1 cells; type: cell-based; parameters: host or cells: HFF-1 human foreskin fibroblasts; details: 24h; reference protein beta-actin
Procedure: To assess STING degradation in human foreskin fibroblasts HFF-1 cells (ATCC, SCRC-1041) cells were seeded at a density of 60.000 cells/well in 24-well Nunclon Delta surface treated culture plate in DMEM growth medium (supplemented with 10% FBS, 1% Pen-strep). Cells were incubated over-night at 37°C 5% CO2 to allow adhesion. Next day growth medium was renewed and a 5x concentration of test compounds (2.5% DMSO) diluted in growth medium were added to the appropriate well. The final DMSO concentration were 0.5%. Cell culture plates were returned to the incubator for additional 24h.
as §3, §4, §5

STING [7] = target: T2, STING; assay: Western Blot analysis of inhibition of STING activation in HFF-1 cells; type: cell-based; parameters: host or cells: HFF-1 human foreskin fibroblasts; details: for STING, TBK1 and IRF1 phosphorylation: 2 h or 5 h
Procedure: (§6) To assess whether S1 STING ligands inhibit STING activation, primary human skin fibroblasts (Figure 5) or HFF-1 cells (Figure 6) were treated with various compounds which comprise only an S1 ligand domain and a Linker domain before undergoing Western Blot analysis as described below.
The cells were lysed and analysed on WB. […] The WB membrane was probed for p-STING, STING, p-IRF3, p-TBK1, and Vinculin.

STING [8] = target: T2, STING; assay: Western Blot analysis for S1 STING ligand antagonism in primary human skin fibroblasts; type: cell-based; parameters: host or cells: HFF-1 human foreskin fibroblasts; details: 5 µM; 2 h or 1 h before, simultaneously with, or 15 minutes after 0.3 µM diABZI
Procedure: as §6, with “below. Compounds A9, A11, A26 and A30 used in the following experiments share a common S1 ligand, which is also shared by Example compounds 1, 3, 5-29, 33-38.” for “below.”
Cells were incubated with A9 or A11 for 1 or 2 hours before addition of diABZI c3, treated with test compound and diABZI c3 simultaneously, or treated with A9 or A11 after 15 minutes incubation with diABZI c3. As a control, cells were also treated with diABZI c3 alone.

T1 sequence (Q86WV6 155-379): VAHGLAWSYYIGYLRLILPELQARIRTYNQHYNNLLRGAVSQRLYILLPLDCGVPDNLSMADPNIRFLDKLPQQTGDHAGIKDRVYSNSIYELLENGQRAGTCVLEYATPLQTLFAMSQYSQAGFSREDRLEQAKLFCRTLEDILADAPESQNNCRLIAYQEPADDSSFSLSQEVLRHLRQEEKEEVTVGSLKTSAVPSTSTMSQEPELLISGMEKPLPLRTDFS

For `CCn1nc(C)cc1C(=O)N=c1n(C)c2cc(C(N)=O)ccc2n1CCC(CCn1c(=NC(=O)c2cc(C)nn2CC)n(C)c2cc(C(N)=O)ccc21)OCC(=O)NCCOCCOCCOCCOCCOc1cccc(C(=O)c2csc([C@@H]3CCCN3C(=O)[C@@H](NC(=O)[C@H](C)NC)C3CCCCC3)n2)c1` (some centres unmarked) [Example 9], which IC50 [1] is on record?
The IC50 was 8.4 nM.

And the “STING phosphorylation (pSTING)” value (STING [2])?
Its value is “no STING phosphorylation was observed”.

With `CCn1nc(C)cc1C(=O)N=c1n(C)c2cc(C(N)=O)ccc2n1CCC(CCn1c(=NC(=O)c2cc(C)nn2CC)n(C)c2cc(C(N)=O)ccc21)OCC(=O)NCCOCCOCCOCCOCCC(=O)N(C)CCOCCOCCOCCOCCC(=O)N[C@H](C(=O)N1C[C@H](O)C[C@H]1C(=O)N[C@@H](C)c1ccc(-c2scnc2C)cc1)C(C)(C)C` (some centres unmarked) [Example 27] as the molecule, how does the IC50 [3] read?
The IC50 was 4.5 nM.

And the DC50 (STING [4])?
The DC50 was under 200 nM.

`CCn1nc(C)cc1C(=O)N=c1n(C)c2cc(C(N)=O)ccc2n1CCC(CCn1c(=NC(=O)c2cc(C)nn2CC)n(C)c2cc(C(N)=O)ccc21)OCC(=O)O` (centres unmarked) [Building Block G-4, (3-{5-Carbamoyl-2-[(1-ethyl-3-methyl-5-pyrazolyl)carbonylimino]-3-methyl-2,3-dihydro-1H-1,3-benzimidazol-1-yl}-1-(2-{5-carbamoyl-2-[(1-ethyl-3-methyl-5-pyrazolyl)carbonylimino]-3-methyl-2,3-dihydro-1H-1 ,3-benzimidazol-1-yl}ethyl)propoxy)acetic acid] was tested. Which IC50 [5] did it give?
Its IC50 is under 30 nM.

With `CCn1nc(C)cc1C(=O)N=c1n(C)c2cc(C(N)=O)ccc2n1CCC(CCn1c(=NC(=O)c2cc(C)nn2CC)n(C)c2cc(C(N)=O)ccc21)OCC(=O)NCCOCCOCCOCCOCCC(=O)NCCOCCOCCNc1cccc2c1C(=O)N(C1CCC(=O)NC1=O)C2=O` (centres unmarked) [Example 23, N-[2-(2-{2-[2-(2,6-Dioxo-3-piperidyl)-1,3-dioxo-4-isoindolinylamino]ethoxy}ethoxy)ethyl]15-{[(3-{5-carbamoyl-2-[(1-ethyl-3-methyl-5-pyrazolyl)carbonylimino]-3-methyl-2,3-dihydro-1H-1,3-benzimidazol-1-yl}-1-(2-{5-carbamoyl-2-[(1-ethyl-3-methyl-5-pyrazolyl)carbonylimino]-3-methyl-2,3-dihydro-1H-1,3-benzimidazol-1-yl}ethyl)propoxy)methyl]carbonylamino}-4,7,10,13-tetraoxapentadecanamide] as the molecule, how does the DC50 (STING [6]) read?
Its DC50 is 200 to 1000 nM.

And the IC50 [3]?
The IC50 was 2.9 nM.

Which “STING phosphorylation (pSTING)” value (STING [2]) does the source give for `CCn1nc(C)cc1C(=O)N=c1n(C)c2cc(C(N)=O)ccc2n1CCC(CCn1c(=NC(=O)c2cc(C)nn2CC)n(C)c2cc(C(N)=O)ccc21)OCC(=O)NCCOCCOCCOCCOc1cccc(C(=O)c2csc([C@@H]3CCCN3C(=O)[C@@H](NC(=O)[C@H](C)NC)C3CCCCC3)n2)c1` (some centres unmarked) [Example 22] here?
Its value is “no STING phosphorylation was observed”.

Which results are given for `CCn1nc(C)cc1C(=O)N=c1n(C)c2cc(C(N)=O)ccc2n1CCC(CCn1c(=NC(=O)c2cc(C)nn2CC)n(C)c2cc(C(N)=O)ccc21)OCC(=O)N1CCC[C@H]1c1cccc(OC)c1` (stereo partly drawn) [Example A11, 1-(3-{2-[(S)-2-(3-Methoxyphenyl)-1-pyrrolidinyl]-2-oxoethoxy}-5-{5-carbamoyl-2-[(1-ethyl-3-methyl-5-pyrazolyl)carbonylimino]-3-methyl-2,3-dihydro-1H-1,3-benzimidazol-1-yl}pentyl)-2-[(1-ethyl-3-methyl-5-pyrazolyl)carbonylimino]-3-methyl-2,3-dihydro-1H-1,3-benzimidazole-5-carboxamide]?
STING, TBK1 and IRF1 phosphorylation (STING [7]; 5 µM for 15 min prior to 300 nM diABZI): lower compared to cells treated with diABZI c3 alone; STING, TBK1 and IRF1 phosphorylation (STING [7]; 5 µM for 15 min prior to 8 µg/mL cGAMP): lower compared to cells treated with cGAMP alone; phosphorylation of STING, IRF1 or TBK1 (agonism) (STING [7]; compound as single agent, no activation): no phosphorylation of STING, IRF1 or TBK1 was observed; LC3B lipidation (STING [8]): reduced LC3B lipidation; P-STING intensity (activation of STING) (STING [8]): reduced intensity of P-STING; P-TBK1 intensity (STING [8]): reduced P-TBK1 intensity

— EP4663632A1, “COMPOUNDS USEFUL FOR THE MODULATION OF THE ACTIVITY OF STING” (Sulis Therapeutics ApS, priority 2024, dated 2025)
